Assay: Pharmacokinetics and tissue biodistribution of radioactivity after i.v. injection
Type: in vivo, C57BL/6 mice
Experimental: In a separate set of experiments, mice received an i.v. injection of [^3H]-25HC3S (1×10^6 cpm/mouse) and 25HC3S (5 mg/kg). At 4, 24, 48, and 96 h after the injection, mice were sacrificed, tissues (brain, heart, lung, liver, kidney, spleen, stomach, small intestine, skeletal muscle, and colon) were rapidly dissected and weighed, and the radioactivity was measured using a liquid scintillation counter with automatic decay correction (Beckman Counter, Atlanta, Ga.). Tissue values were calculated as a percentage of injected counts per gram of tissue (% IC/g). For pharmacokinetics, blood samples (30 μl) were collected at selected times after injection from 0 to 96 h via tail clip. Counts of radioactivity were expressed as IC/ml of blood.

[1] = i.v. [3H]-25HC3S and 25HC3S 5 mg/kg

CC(CCCC(C)(C)O)C1CCC2C3CC=C4CC(OS(=O)(=O)O)CCC4(C)C3CCC12C (centres unmarked) [25HC3S, 25-hydroxycholesterol-3-sulfate]
maximum level of 3H-radioactivity in blood (i.v. [3H]-25HC3S (1×10^6 cpm/mouse) and 25HC3S 5 mg/kg): 7 % IC/g
time at which blood 3H-radioactivity decreased to the half level [1]: 48 h
time of maximum 3H-radioactivity in blood [1]: 1 h
clearance (i.v., blood radioactivity): slow clearance
time of highest uptake of 3H-radioactivity in most organs (i.v., measured at 4, 24, 48 and 96 h): 4 h

— US9034859B2, “Sulfated oxysterol and oxysterol sulfation by hydroxysterol sulfotransferase promote lipid homeostasis and liver proliferation” (Virginia Commonwealth University, priority 2011, dated 2015)
